Laboratory results reported in patent US20080166753A1, “Microbial Growth Assay” (University Technologies International Inc., priority 2004, published 2008).
“Also recorded” adds a separate entry of the source.

Legend:
[1] = tested on: P. aeruginosa mutant strain TTD2 biofilm; assay: Biofilm killing assessed by XTT absorbance, mutant strain TTD2; format: cell-based; conditions: strain TTD2 (contains gentamicin cassette), 48 h biofilm
Method: (§1) Biofilm Growth Conditions. Isolates were propagated in Mueller-Hinton broth (MHB). Flasks containing liquid medium (20 ml) were inoculated with a loopful of cells from MHB agar plates containing freshly grown isolates, and incubated overnight in an orbital shaker (100 rpm) at 37° C. Cells were harvested and resuspended in MHB at a cellular density equivalent to 1.0×10^6 cells per milliliter. Biofilms were formed on the pegs of the Calgary Biofilm Device (CBD; MBE™ Biofilm Technologies, Ltd., Edmonton AB), described in Ceri et al. (Ceri et al., J. Clin. Microbiol., 37(6):1771-6, 1999). The device consists of 96 conical pegs attached to a plastic lid. […]
(§2) Optimizing XTT Assay. In order to optimize the quantities of 2,3-bis[2-methyloxy-4-nitro-5-sulfophenyl]-2H-tetrazolium-5-carboxanilide (XTT; Sigma) and menadione required for quantifying biofilm metabolic activity, varying concentrations were tested. […] The concentration of menadione (2-methyl-1,4-naphthoquinone; Sigma), the electron-coupling agent, was varied to establish the optimal molarity in respect to maximal absorbance readings. […] The change in XTT absorbance at 490 nm was assessed spectrophotometerically using an automated microtiter plate reader. It was determined that 75 μM gave the optimal change in absorbance after 2 h (FIG. 7). […]
(§3) Assessment of Biofilm Killing Kinetics Using XTT. […] XTT absorbance readings were taken at 2 h and then at 24 h. […]

[2] = tested on: P. aeruginosa mutant strain 4G6 biofilm; assay: Biofilm killing assessed by XTT absorbance, mutant strain 4G6; format: cell-based; conditions: strain 4G6 (contains gentamicin cassette), 48 h biofilm
Method: as §1, §2, §3

gentamicin was tested, and the “Susceptibility as assessed by XTT absorbance” value [1] was “less susceptible; also recorded: decreased susceptibility” and the “Susceptibility as assessed by XTT absorbance” value [2] was “less susceptible; also recorded: decreased susceptibility”.
